Measured values from patent US4218443A, “Polyether ionophores as antiobesity and hypotriglyceridemic agents” (Hoffmann-La Roche Inc., priority 1979, dated 1980).

How the values were obtained:
[1] = test system: obese and lean female Zucker rats; assay: Chronic 21 day experiment in obese and lean Zucker rats; format: in vivo, Zucker rat; conditions: 150 mg/kg b.i.d. oral, 21 days, sodium salt, mean ± SE
Text: Ad libitum fed lean and genetically obese Zucker rats (140 days old) were used in one chronic study.
Faster enzymatic procedure for serum triglycerides, Clinical Chemistry, 21: 1983-1985], cholesterol, [C. C. Allain, L. Poon, S. G. Chan, W. Richmond and P. Fu (1974). Enzymatic determination of total serum cholesterol, Clinical Chemistry, 20: 470-475] and glucose, [R. Konig, H. Dauwalder and R. Richterich (1971). Vergleichende Bestimmungen der Uringlucosekonzentration mit der Polarimetrie und einer enzymatischen Methode (Hexokinase/Glucose-6-Phosphat-Dehydrogenase), Schweiz. Med. Wschr., 101: 860-866], by enzymatic procedures and free fatty acids, [C. Dalton and C. Kowalski (1967). Automated colorimetric determination of free fatty acids in biologic fluids, Clinical Chemistry, 13: 744-751], by a Colorimetric procedure. Serum immunoreactive insulins were determined by radioimmunoassay, [G. F. Bryce, P. R. Johnson, A. C. Sullivan, J. S. Stern (1977). Insulin and glucagon: Plasma levels and pancreatic release in the gentically obese Zucker rat, Hormone and Metabolic Research, 9: 366-370].
FIG. 2 sets forth body weight gain values of rats matched for initial body weight and pair fed 10% corn oil diet without dinitrodescarboxylasalocid and three groups of pair fed rats receiving 60, 120 and 240 mg/kg of dinitrodescarboxylasalocid as dietary admixes for 31 days respectively. […] Tables 12 and 13 describe the effects of dinitrodescarboxylasalocid (150 mg/kg b.i.d. by oral intubation) in genetically obese and lean Zucker rats for 21 days.

pancreatic lipase = molecular target: T1, pancreatic lipase (Rattus norvegicus, UniProt P27657); assay: In vitro pancreatic lipase screen ([14C]-triolein assay); format: biochemical; conditions: read-out: Pancreatic Lipase Activity I50
T1 construct: stimulated to release pancreatic proteins by addition of 10^-5 M carbachol; from tissue; host or cells: pancreatic lobules of fasted Charles River female rats; released pancreatic juice, centrifuged
T1 sequence (P27657 17-465): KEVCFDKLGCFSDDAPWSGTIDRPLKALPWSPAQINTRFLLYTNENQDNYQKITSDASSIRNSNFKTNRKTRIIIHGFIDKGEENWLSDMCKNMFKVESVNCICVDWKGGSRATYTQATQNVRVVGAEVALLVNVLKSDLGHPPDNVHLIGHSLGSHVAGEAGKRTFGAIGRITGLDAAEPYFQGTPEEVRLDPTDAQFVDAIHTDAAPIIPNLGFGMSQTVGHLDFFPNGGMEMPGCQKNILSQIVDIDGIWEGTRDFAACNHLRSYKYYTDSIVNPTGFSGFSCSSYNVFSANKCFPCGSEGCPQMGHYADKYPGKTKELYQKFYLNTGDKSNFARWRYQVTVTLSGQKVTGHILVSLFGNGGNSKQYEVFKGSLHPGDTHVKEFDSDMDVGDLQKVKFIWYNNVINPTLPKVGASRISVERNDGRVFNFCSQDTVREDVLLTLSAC
Experimental: The method for assaying pacreatic lipase in vitro using [^14 C]-triolein was based on the method of Garfinkel and Schotz for lipoprotein lipase, [A. S. Garfinkel and M. C. Schotz (1972). […] Glycerol tri[1-^14 C]oleate (32 mM) was emulsified in 0.2 M Tris-HCl pH 8 containing 0.15 M NaCl, bovine serum albumin (15 mg/ml) and sodium taurocholate (1.4 mM) by sonication for three, one min intervals at 80 watts. Final assay volume was 1.0 ml. The reaction was initiated by the addition of enzyme and was allowed to proceed for 10 min. The reaction was linear for up to 20 min. The liberated free fatty acids were extracted into 0.1 M KOH and quantitated in a liquid scintillation counter using 2,5-bis-2-(5-tertbutylbenzoxazolyl)-tniophene (BBOT) scintillation fluid (Yorktown Research, South Hackensack, N.J.).
Ionophores were added to the above assay as solutions in either 90% ethanol or water, pH 8; 90% ethanol had no effect on the enzyme activity assayed by either method.

human pancreatic lipase = molecular target: T2, human pancreatic lipase (Homo sapiens, UniProt P16233); assay: In vitro titrimetric (Radiometer pH-stat) pancreatic lipase assay, Dixon plots; format: biochemical; conditions: Dixon plots
T2 construct: Human pancreatic juice was obtained from a patient with acute pancreatitis; from tissue; host or cells: human pancreatic juice from the cannulated duct of a patient with acute pancreatitis; gift of Dr. George Nardi, Massachusetts General Hospital
T2 sequence (P16233 17-465): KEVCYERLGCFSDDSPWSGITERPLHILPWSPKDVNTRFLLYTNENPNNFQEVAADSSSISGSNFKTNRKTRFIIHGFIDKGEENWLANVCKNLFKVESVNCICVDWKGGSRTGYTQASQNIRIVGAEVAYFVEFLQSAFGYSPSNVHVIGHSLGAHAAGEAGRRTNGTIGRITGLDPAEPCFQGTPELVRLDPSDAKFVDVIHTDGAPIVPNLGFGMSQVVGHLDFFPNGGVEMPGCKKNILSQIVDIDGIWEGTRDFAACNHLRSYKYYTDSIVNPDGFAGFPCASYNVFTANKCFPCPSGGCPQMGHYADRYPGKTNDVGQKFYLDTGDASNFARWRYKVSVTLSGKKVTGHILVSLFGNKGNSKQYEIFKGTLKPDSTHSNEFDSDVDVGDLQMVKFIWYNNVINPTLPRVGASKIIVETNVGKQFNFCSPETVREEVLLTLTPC

[2] = test system: intestinal absorption of triglycerides (corn oil); assay: In vivo absorption of triglycerides (corn oil absorption); conditions: Experiment 2, sodium
[3] = test system: hepatic fatty acid synthesis; assay: In vivo hepatic fatty acid synthesis in meal-fed rats; design: species or system Charles River rat; conditions: sodium salt, mean ± SE
Experimental: In the following examples, female rats (Charles River CD strain, 180-200 g) were housed individually in wire bottom cages in a temperature (22°) and light (12 hr light and 12 hr dark) regulated room. They had free access to Purina Rodent Chow and water.

SMILES: CC[C@@H](C(=O)[C@@H](C)[C@@H](O)[C@H](C)CCc1c([N+](=O)[O-])cc(C)c(O)c1[N+](=O)[O-])[C@H]1O[C@](CC)([C@H]2CC[C@](O)(CC)[C@H](C)O2)C[C@@H]1C [Dinitrodescarboxylasalocid]
- Body Weight Gain ([1]; Fa/- (lean)): 20 ± 4 g
- Fat Absorption ([1]; Fa/- (lean)): 90.1 ± 0.9%
- Fecal Weight ([1]; Fa/- (lean)): 1.6 ± 0.1 g
- Final Body Weight ([1]; Fa/- (lean)): 202 ± 5 g
- Food Consumption ([1]; Fa/- (lean)): 16.8 ± 0.8 g/day
- Serum Cholesterol ([1]; Fa/- (lean)): 84 ± 7 mg/100 ml
- Serum Free Fatty Acids ([1]; Fa/- (lean)): 519 ± 58 μeq/l
- Serum Glucose ([1]; Fa/- (lean)): 154 ± 6 mg/100 ml
- Serum IRI (immunoreactive insulin) ([1]; Fa/- (lean)): 0.5 ± 0.1 ng/mL
- Serum Triglycerides ([1]; Fa/- (lean)): 71 ± 5 mg/100 ml
- Body Weight Gain ([1]; fa/fa (obese)): 61 ± 6 g
- Fat Absorption ([1]; fa/fa (obese)): 93.0 ± 1.1%
- Fecal Weight ([1]; fa/fa (obese)): 2.1 ± 0.1 g
- Final Body Weight ([1]; fa/fa (obese)): 352 ± 12 g
- Food Consumption ([1]; fa/fa (obese)): 19.5 ± 0.9 g/day
- Serum Cholesterol ([1]; fa/fa (obese)): 168 ± 6 mg/100 ml
- Serum Free Fatty Acids ([1]; fa/fa (obese)): 668 ± 59 μeq/l
- Serum Glucose ([1]; fa/fa (obese)): 201 ± 12 mg/100 ml
- Serum IRI (immunoreactive insulin) ([1]; fa/fa (obese)): 8.3 ± 0.6 ng/mL
- Serum Triglycerides ([1]; fa/fa (obese)): 178 ± 19 mg/100 ml
- IC50 (pancreatic lipase): 400 µM
- type of inhibition from Dixon plots (human pancreatic lipase): suggested competitive inhibition
- Ki (human pancreatic lipase; in vitro Radiometer assay, read-out: inhibition constant (Ki)): 20 µM
- Area under curve (corn oil absorption) ([2]; 56 mg/kg p.o.): 1213
- Area under curve, % of control ([2]; 56 mg/kg p.o.): 86 % of control
- Area under curve (corn oil absorption) ([2]; 120 mg/kg p.o.): 1072
- Area under curve, % of control ([2]; 120 mg/kg p.o.): 76 % of control
- Area under curve (corn oil absorption) ([2]; 240 mg/kg p.o.): 564
- Area under curve, % of control ([2]; 240 mg/kg p.o.): 40 % of control
- Fatty Acid Synthesis 3H2O converted ([3]; 60 mg/kg i.p.): 12.5 ± 2.1 μmoles per 1 g liver in 30 min
- Fatty Acid Synthesis [14C]alanine converted ([3]; 60 mg/kg i.p.): 208 ± 42 nmoles per 1 g liver in 30 min
- Fatty Acid Synthesis 3H2O converted ([3]; Experiment 1, 240 mg/kg p.o.): 17.1 ± 3.5 μmoles per 1 g liver per 30 mi
- Fatty Acid Synthesis [14C]alanine converted ([3]; Experiment 1, 240 mg/kg p.o.): 250 ± 87 nmoles per 1 g liver per 30 mi
- Fatty Acid Synthesis 3H2O converted ([3]; Experiment 2, 60 mg/kg p.o.): 17.0 ± 3.1 μmoles per 1 g liver per 30 mi
- Fatty Acid Synthesis [14C]alanine converted ([3]; Experiment 2, 60 mg/kg p.o.): 711 ± 130 nmoles per 1 g liver per 30 mi
- Fatty Acid Synthesis 3H2O converted ([3]; Experiment 2, 120 mg/kg p.o.): 18.7 ± 2.1 μmoles per 1 g liver per 30 mi
- Fatty Acid Synthesis [14C]alanine converted ([3]; Experiment 2, 120 mg/kg p.o.): 696 ± 80 nmoles per 1 g liver per 30 mi
- Fatty Acid Synthesis 3H2O converted ([3]; Experiment 2, 240 mg/kg p.o.): 12.6 ± 1.4 μmoles per 1 g liver per 30 mi
- Fatty Acid Synthesis [14C]alanine converted ([3]; Experiment 2, 240 mg/kg p.o.): 510 ± 64 nmoles per 1 g liver per 30 mi
